Results reported in article PMC4197335, “Cancer-Selective Targeting of the NF-κB Survival Pathway with GADD45β/MKK7 Inhibitors” (Cancer Cell, 2014).
≈ marks a conversion by molar mass, not a printed value. Read-outs that look alike come from different tables or passages of the source.

Assays:
[1] = subcutaneous U266 myeloma xenograft (plasmacytoma model); assay type: in vivo, mice; conditions: male, NOD/SCID (NOD.CB17-Prkdcscid/IcrCrl), mouse, plasma, sc; continual infusion 14.5 mg/kg/day; SEM, n=16; read-out: plasma concentration at the steady state
thermodynamic solubility = assay type: physicochemical; conditions: in PBS, pH 7.4, for 14 days at 37 °C
Source text: (§1) Pharmacophore Model Building
(§2) The pharmacophore predictive
(§3) Broad- Panel Kinase Profiling
(§4) according to in-house protocols therein.
(§5) Pharmacokinetic Anal yses
(§6) In vitro pharmacok inetic assays were […]

microsomal stability = assay type: in vitro ADME, human
Source text: as §1, §2, §3, §4, §5, §6

[2] = distribution coefficient (LogD); assay type: physicochemical
Source text: as §1, §2, §3, §4, §5, §6

plasma protein binding = assay type: in vitro ADME; conditions: read-out: PPB (fraction unbound)
Source text: as §1, §2, §3, §4, §5, §6

plasma stability = assay type: in vitro ADME, human
Source text: as §1, §2, §3, §4, §5, §6

GADD45β/MKK7 complex = biological target: T1, GADD45β/MKK7 complex (Homo sapiens, UniProt O14733); test: ELISA GADD45β/MKK7 competition assay; assay type: binding
T1 construct: Full-length human (h)MKK7 was expressed as a protein fused to an N-terminal GST tag (GST-MKK7); made in house
T1 sequence (O14733 1-419): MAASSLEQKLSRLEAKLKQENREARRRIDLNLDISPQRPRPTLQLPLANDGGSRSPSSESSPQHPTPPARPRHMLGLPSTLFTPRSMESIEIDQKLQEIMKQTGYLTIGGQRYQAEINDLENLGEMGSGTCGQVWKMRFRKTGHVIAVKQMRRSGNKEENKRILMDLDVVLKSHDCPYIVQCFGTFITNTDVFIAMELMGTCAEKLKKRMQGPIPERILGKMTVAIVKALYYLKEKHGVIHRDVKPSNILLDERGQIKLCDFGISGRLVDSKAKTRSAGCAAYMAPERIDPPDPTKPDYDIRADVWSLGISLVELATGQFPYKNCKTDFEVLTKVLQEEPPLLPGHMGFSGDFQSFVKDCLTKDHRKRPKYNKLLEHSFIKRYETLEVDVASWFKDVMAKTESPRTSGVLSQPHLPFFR
Source text: (§7) Additional details are provided in Supplemental Experimental Procedures.
(1:1,000) and the HRP chromogenic substrate, o -phenylenediamine (OPD). GST -coated wells wer e […]
The ELISA competition screen used f or the isolation of antagonists of the GADD45β /MKK7 […]
The library deconvolution strategy used for this screen was described previously […]
General information about this type of screens can be found elsewhere […]
Values were expressed as the percentage of inhibition of His6-hGADD45β binding to GST-hMKK7 relative to the binding measured in the absence of […]
Dose-response, ELISA GADD45β /MKK7 competition assays were carried out under similar […]
As part of the SAR analysis and lead optimization process, where appropriate, competitors were tested at a concentration up to 100 nM. In order to determine their stability in biolog ical f luids , peptides were incubated at the concentration of 10 µM in […]
calculated using at least 7 concentrations of peptide and def ined as the mean concentration of peptide […]
the absence of competitor. W here indicated, values were expressed as the percentage of inhibition of His 6 -hGADD45β binding to GST-hMKK7 relative to the binding measured in the absence of competitor.
GST was used as a control in all the experiments. […]
tetrapeptide used as negative control in some of the ELISA and cellular assays was as f ollows: z -DNC, z-T yr -Asp-His-Gln-NH 2 . […]

[3] = pharmacokinetics after single intravenous injection
Procedure: The pharmacokinetic analyses of DTP3 and z-DTP2 were outsourced. Additional details are provided in Supplemental Experimental Procedures. […]
as §5
In vitro and in vivo pharmacok inetic analyses were outsourced to Cypr ot ex (http://www.c yprotex.com/home/) (Figure 7A, Tables S6). In vitro pharmacok inetic assays were perf ormed according to established, in- house protocols and included: plasma stability (human), thermodynamic solubility (PBS pH 7.4, at 37 °C f or 14 days), microsomal stability (human), plasma protein binding (PPB; mouse and human), and distribution coeff icient (LogD). In vivo pharmacok inetic […]
analyses were also perf ormed at Cyprotex according to established, in- house protocols. Brief ly, the peptides were dissolved in PBS and administered by single intravenous injection t o CD1 male mice at the dose of 10 mg/kg (25 -30 g of total body weight; n=3 mice per time point per compound) . Blood samples were collected in heparinized tubes at up to 7 tim e points after this injection (i.e. 0.08, 0.25, 0.5, 1, 2, 4 and 8 hr), and the plasma concentrations of the test peptide were determined at each time point by LC-MS/ MS, using a f ive- point standard curve covering a peptide concentration range from 3 to 3,000 ng/mL. Standard curves were prepared using blank plasma matrices and treated in the same manner as the test samples. The main pharmacok inetic parameters determined in these analyses were: terminal half-lif e (t 1/2 ), plasma clearance (CL), volume of distribution (V d ), and area under the plasma concentration versus time curve (AUC) (Figure 7A, Table S6). Values were calculated from the data of the peptide plasma concentration versus time curves using a non-compartmental model analysis, as described elsewhere (Groulx, 2006; Landaw and Di Stef ano 3rd, 1982) . […]

[4] = system: mouse lymph node (LN) cells; test: cells; conditions: read-out: IC50 (normal; lymph node cells); at 48 hr
Source text: as §7
(§8) automated system (Becton Dick inson) and analyzed with FlowJo.

[5] = system: human mesenchymal stem cells (MSCs); test: cells; conditions: read-out: IC50 (normal; MCSs); at 48 hr
Source text: as §7, §8

human BMSCs = test: cells; conditions: read-out: IC50 (normal; BMSCs); at 48 hr
Source text: as §7, §8

[6] = system: CD138+ cells from WM patients; test: cells; conditions: read-out: IC50 (WM; PCs (n= 2)); at 48 hr; mean ± SEM
Source text: as §7, §8

human PBMCs = test: cells; conditions: read-out: IC50 (normal; PBMCs); at 48 hr
Source text: as §7, §8

mouse splenocytes = test: cells; conditions: read-out: IC50 (normal; splenocytes); at 48 hr
Source text: as §7, §8

[7] = system: CD138+ cells from MM patients; test: cells; conditions: read-out: IC50 (MM; PCs (n = 8)); at 48 hr; mean ± SEM
Source text: as §7, §8

With `CC(=O)N[C@H](Cc1ccc(O)cc1)C(=O)N[C@H](CCCNC(=N)N)C(=O)N[C@H](Cc1ccccc1)C(N)=O` [DTP3, Ac-YRF-NH2] the level at time molar [1] was 700 ± 90 nM, the solubility thermodynamic (thermodynamic solubility) was 169 ± 7.53 mg/mL (≈ 322 mM) and the “microsomal stability (human)” value (microsomal stability) was 4.87 ± 1.24 µL/min/mg protein. The half-life (microsomal stability; human, microsomes, read-out: microsomal stability (human) t½) was 4.75 h, the logD [2] was 1.19 ± 0.29 and the fraction unbound (plasma protein binding; human) was 0.933 ± 0.004. For the same molecule, the fraction unbound (plasma protein binding; mouse) was 0.42 ± 0.01, the “plasma stability (human)” value (plasma stability) was over 48 h and the IC50 (GADD45β/MKK7 complex; Table S4, read-out: IC50s (ELISA)) was 0.00016 µM. For the same molecule, the inhibition at 0.042 µM (GADD45β/MKK7 complex; read-out: % inhibition of (ELISA)) was 94%, the “predicted dose required to achieve the therapeutic plasma concentration of 1 μM at the steady state” value ([3]; k0 = k1 x Vd x Cp) was 0.81 mg/kg/h and the AUC ([3]; mouse, in vivo, iv, 10 mg/kg) was 6430 ± 10 ng·h/mL. For the same molecule, the Vd ([3]; mouse, in vivo, iv, 10 mg/kg) was 2.8 ± 1.26 L/kg, the clearance ([3]; mouse, in vivo, iv, 10 mg/kg) was 27.1 ± 4.09 mL/min/kg and the half-life ([3]; mouse, in vivo, iv, 10 mg/kg) was 1.26 h. For the same molecule, the IC50 [4] was over 100 µM, the IC50 [5] was over 100 µM and the IC50 (human BMSCs) was over 100 µM. It also gave an IC50 [6] of over 10 µM, an IC50 (human PBMCs) of over 100 µM and an IC50 (mouse splenocytes) of over 100 µM. For the same molecule, the IC50 [7] was 0.0282 ± 0.0001 µM.
